Reference: ChEMBL document CHEMBL3885861, “Open TG-GATES”

Species on record: Rattus norvegicus
Assay: Open TG-GATES - Regimen: Single
Assay type: toxicity, organism-based, Sprague-Dawley
Set-up: regimen Single, gender Male, age 6 weeks
Conditions: in vivo, po, route gavage; for APTT / Bas / Eos / Fbg / Hb / Ht / Lym / MCH / MCHC / MCV / Mono / Neu / PT / Plat / RBC / Ret / WBC: tissue Blood; for KIDNEY_L / KIDNEY_R / KIDNEY_TOTAL: tissue Kidney; for LIVER: tissue Liver; for A/G / ALP / ALT / AST / BUN / CRE / Ca / Cl / DBIL / GLC / IP / K / LDH / Na / PL / RALB / TBIL / TC / TG / TP / gamma-GTP: tissue Plasma
[1] = 300 mg/kg, 3 h, dose level Middle
[2] = 300 mg/kg, 6 h, dose level Middle
[3] = 300 mg/kg, 9 h, dose level Middle
[4] = 300 mg/kg, 24 h, dose level Middle
[5] = 1000 mg/kg, 3 h, dose level High
[6] = 1000 mg/kg, 6 h, dose level High
[7] = 1000 mg/kg, 9 h, dose level High
[8] = 1000 mg/kg, 24 h, dose level High

COc1ccc(Cl)cc1C(=O)NCCc1ccc(S(=O)(=O)NC(=O)NC2CCCCC2)cc1 [GLYBURIDE]
TERMINAL_BW [1]: 217.4 g
APTT [1]: 18.5 s
Bas [1]: 0%
Eos [1]: 1%
Fbg [1]: 239 mg/dL
Hb [1]: 13.3 g/dL
Ht [1]: 40.4%
Lym [1]: 72%
MCH [1]: 20.3 pg
MCHC [1]: 32.9%
MCV [1]: 61.7 fL
Mono [1]: 2.6%
Neu [1]: 23.8%
PT [1]: 12.6 s
Plat [1]: 139.4 x10_4/uL
RBC [1]: 655.2 x10_4/ul
Ret [1]: 8.6%
WBC [1]: 79 x10_2/uL
KIDNEY_L [1]: 1 g
KIDNEY_R [1]: 1 g
KIDNEY_TOTAL [1]: 1.9 g
LIVER [1]: 9.7 g
A/G [1]: 1.5
ALP [1]: 1040 IU/L
ALT [1]: 46.4 IU/L
AST [1]: 70.8 IU/L
BUN [1]: 12.2 mg/dL
CRE [1]: 0.3 mg/dL
Ca [1]: 10.8 mg/dL
Cl [1]: 103.6 meq/L
DBIL [1]: 0.1 mg/dL
GLC [1]: 136.4 mg/dL
IP [1]: 8.7 mg/dL
K [1]: 3.7 meq/L
LDH [1]: 143.8 IU/L
Na [1]: 141.2 meq/L
PL [1]: 165.8 mg/dL
RALB [1]: 3.5 g/dL
TBIL [1]: 0.2 mg/dL
TC [1]: 82.4 mg/dL
TG [1]: 88 mg/dL
TP [1]: 5.7 g/dL
gamma-GTP [1]: 1 IU/L
TERMINAL_BW [2]: 216.4 g
APTT [2]: 18.7 s
Bas [2]: 0%
Eos [2]: 0.8%
Fbg [2]: 215.8 mg/dL
Hb [2]: 13.4 g/dL
Ht [2]: 41%
Lym [2]: 74.4%
MCH [2]: 20.7 pg
MCHC [2]: 32.6%
MCV [2]: 63.6 fL
Mono [2]: 3%
Neu [2]: 21%
PT [2]: 12.9 s
Plat [2]: 123.3 x10_4/uL
RBC [2]: 645.6 x10_4/ul
Ret [2]: 8.3%
WBC [2]: 114.4 x10_2/uL
KIDNEY_L [2]: 1 g
KIDNEY_R [2]: 0.9 g
KIDNEY_TOTAL [2]: 1.9 g
LIVER [2]: 9.6 g
A/G [2]: 1.6
ALP [2]: 903.6 IU/L
ALT [2]: 33.6 IU/L
AST [2]: 62.2 IU/L
BUN [2]: 11.8 mg/dL
CRE [2]: 0.3 mg/dL
Ca [2]: 10.8 mg/dL
Cl [2]: 103.6 meq/L
DBIL [2]: 0.1 mg/dL
GLC [2]: 161.4 mg/dL
IP [2]: 9 mg/dL
K [2]: 3.8 meq/L
LDH [2]: 134.8 IU/L
Na [2]: 140.8 meq/L
PL [2]: 139.2 mg/dL
RALB [2]: 3.4 g/dL
TBIL [2]: 0.2 mg/dL
TC [2]: 72.4 mg/dL
TG [2]: 69.4 mg/dL
TP [2]: 5.7 g/dL
gamma-GTP [2]: 0.8 IU/L
TERMINAL_BW [3]: 213.5 g
APTT [3]: 19.3 s
Bas [3]: 0%
Eos [3]: 1%
Fbg [3]: 234.8 mg/dL
Hb [3]: 13.4 g/dL
Ht [3]: 41%
Lym [3]: 67.8%
MCH [3]: 20.7 pg
MCHC [3]: 32.8%
MCV [3]: 63.2 fL
Mono [3]: 3%
Neu [3]: 27.4%
PT [3]: 12.6 s
Plat [3]: 119.4 x10_4/uL
RBC [3]: 648.6 x10_4/ul
Ret [3]: 7.9%
WBC [3]: 119.6 x10_2/uL
KIDNEY_L [3]: 0.9 g
KIDNEY_R [3]: 1 g
KIDNEY_TOTAL [3]: 1.9 g
LIVER [3]: 9.4 g
A/G [3]: 1.5
ALP [3]: 926.6 IU/L
ALT [3]: 35.8 IU/L
AST [3]: 65.2 IU/L
BUN [3]: 12.2 mg/dL
CRE [3]: 0.3 mg/dL
Ca [3]: 10.6 mg/dL
Cl [3]: 102.8 meq/L
DBIL [3]: 0.086 mg/dL
GLC [3]: 148.4 mg/dL
IP [3]: 10.2 mg/dL
K [3]: 3.6 meq/L
LDH [3]: 133.6 IU/L
Na [3]: 141.6 meq/L
PL [3]: 149.2 mg/dL
RALB [3]: 3.5 g/dL
TBIL [3]: 0.1 mg/dL
TC [3]: 76.2 mg/dL
TG [3]: 58.6 mg/dL
TP [3]: 5.8 g/dL
gamma-GTP [3]: 1.8 IU/L
TERMINAL_BW [4]: 225 g
APTT [4]: 18.1 s
Bas [4]: 0.2%
Eos [4]: 1%
Fbg [4]: 220.2 mg/dL
Hb [4]: 12.9 g/dL
Ht [4]: 37.9%
Lym [4]: 82.6%
MCH [4]: 21.5 pg
MCHC [4]: 33.9%
MCV [4]: 63.5 fL
Mono [4]: 1.8%
Neu [4]: 14%
PT [4]: 12.5 s
Plat [4]: 119.5 x10_4/uL
RBC [4]: 597.4 x10_4/ul
Ret [4]: 6.6%
WBC [4]: 91.9 x10_2/uL
KIDNEY_L [4]: 1 g
KIDNEY_R [4]: 1 g
KIDNEY_TOTAL [4]: 2 g
LIVER [4]: 10.4 g
A/G [4]: 1.7
ALP [4]: 931.4 IU/L
ALT [4]: 36.2 IU/L
AST [4]: 65 IU/L
BUN [4]: 15.8 mg/dL
CRE [4]: 0.4 mg/dL
Ca [4]: 10.7 mg/dL
Cl [4]: 102.4 meq/L
DBIL [4]: 0.088 mg/dL
GLC [4]: 202 mg/dL
IP [4]: 8.3 mg/dL
K [4]: 3.5 meq/L
LDH [4]: 182.2 IU/L
Na [4]: 141.8 meq/L
PL [4]: 144.4 mg/dL
RALB [4]: 3.4 g/dL
TBIL [4]: 0.1 mg/dL
TC [4]: 79 mg/dL
TG [4]: 62.6 mg/dL
TP [4]: 5.4 g/dL
gamma-GTP [4]: 1.4 IU/L
TERMINAL_BW [5]: 216.5 g
APTT [5]: 18.9 s
Bas [5]: 0%
Eos [5]: 1%
Fbg [5]: 226.2 mg/dL
Hb [5]: 13.2 g/dL
Ht [5]: 40.8%
Lym [5]: 69.2%
MCH [5]: 20.3 pg
MCHC [5]: 32.5%
MCV [5]: 62.6 fL
Mono [5]: 4%
Neu [5]: 25%
PT [5]: 12.6 s
Plat [5]: 118.1 x10_4/uL
RBC [5]: 651.8 x10_4/ul
Ret [5]: 7.9%
WBC [5]: 75.5 x10_2/uL
KIDNEY_L [5]: 0.9 g
KIDNEY_R [5]: 1 g
KIDNEY_TOTAL [5]: 1.9 g
LIVER [5]: 9.5 g
A/G [5]: 1.6
ALP [5]: 1086.8 IU/L
ALT [5]: 43.2 IU/L
AST [5]: 67.2 IU/L
BUN [5]: 13.2 mg/dL
CRE [5]: 0.3 mg/dL
Ca [5]: 10.7 mg/dL
Cl [5]: 104.4 meq/L
DBIL [5]: 0.2 mg/dL
GLC [5]: 125.4 mg/dL
IP [5]: 7.8 mg/dL
K [5]: 3.7 meq/L
LDH [5]: 172.8 IU/L
Na [5]: 141.8 meq/L
PL [5]: 178.6 mg/dL
RALB [5]: 3.4 g/dL
TBIL [5]: 0.2 mg/dL
TC [5]: 85.2 mg/dL
TG [5]: 123 mg/dL
TP [5]: 5.5 g/dL
gamma-GTP [5]: 1.8 IU/L
TERMINAL_BW [6]: 217.2 g
APTT [6]: 19.4 s
Bas [6]: 0%
Eos [6]: 0.8%
Fbg [6]: 240.8 mg/dL
Hb [6]: 13.6 g/dL
Ht [6]: 41.3%
Lym [6]: 79.4%
MCH [6]: 20.7 pg
MCHC [6]: 32.9%
MCV [6]: 62.9 fL
Mono [6]: 2.8%
Neu [6]: 16.2%
PT [6]: 12.6 s
Plat [6]: 128.9 x10_4/uL
RBC [6]: 657 x10_4/ul
Ret [6]: 8.2%
WBC [6]: 91.7 x10_2/uL
KIDNEY_L [6]: 1 g
KIDNEY_R [6]: 1 g
KIDNEY_TOTAL [6]: 1.9 g
LIVER [6]: 9.7 g
A/G [6]: 1.6
ALP [6]: 948.2 IU/L
ALT [6]: 38.4 IU/L
AST [6]: 65.4 IU/L
BUN [6]: 12.4 mg/dL
CRE [6]: 0.4 mg/dL
Ca [6]: 10.6 mg/dL
Cl [6]: 104.2 meq/L
DBIL [6]: 0.1 mg/dL
GLC [6]: 155.8 mg/dL
IP [6]: 8.7 mg/dL
K [6]: 3.6 meq/L
LDH [6]: 169.2 IU/L
Na [6]: 141.8 meq/L
PL [6]: 154 mg/dL
RALB [6]: 3.5 g/dL
TBIL [6]: 0.2 mg/dL
TC [6]: 82.4 mg/dL
TG [6]: 86.4 mg/dL
TP [6]: 5.7 g/dL
gamma-GTP [6]: 1.6 IU/L
TERMINAL_BW [7]: 211.6 g
APTT [7]: 18.9 s
Bas [7]: 0%
Eos [7]: 1%
Fbg [7]: 228 mg/dL
Hb [7]: 13.3 g/dL
Ht [7]: 40.7%
Lym [7]: 76%
MCH [7]: 20.4 pg
MCHC [7]: 32.6%
MCV [7]: 62.5 fL
Mono [7]: 2.8%
Neu [7]: 19.6%
PT [7]: 12.9 s
Plat [7]: 115.6 x10_4/uL
RBC [7]: 651.2 x10_4/ul
Ret [7]: 7.8%
WBC [7]: 83.2 x10_2/uL
KIDNEY_L [7]: 0.9 g
KIDNEY_R [7]: 0.9 g
KIDNEY_TOTAL [7]: 1.8 g
LIVER [7]: 8.7 g
A/G [7]: 1.7
ALP [7]: 1050.6 IU/L
ALT [7]: 35.4 IU/L
AST [7]: 65.2 IU/L
BUN [7]: 12.8 mg/dL
CRE [7]: 0.4 mg/dL
Ca [7]: 10.7 mg/dL
Cl [7]: 103.8 meq/L
DBIL [7]: 0.1 mg/dL
GLC [7]: 139 mg/dL
IP [7]: 9.5 mg/dL
K [7]: 3.5 meq/L
LDH [7]: 168.2 IU/L
Na [7]: 142.2 meq/L
PL [7]: 141 mg/dL
RALB [7]: 3.5 g/dL
TBIL [7]: 0.2 mg/dL
TC [7]: 70.8 mg/dL
TG [7]: 64.2 mg/dL
TP [7]: 5.7 g/dL
gamma-GTP [7]: 0.6 IU/L
TERMINAL_BW [8]: 226 g
APTT [8]: 18.8 s
Bas [8]: 0.2%
Eos [8]: 1%
Fbg [8]: 215.2 mg/dL
Hb [8]: 13 g/dL
Ht [8]: 38.3%
Lym [8]: 77.2%
MCH [8]: 21.6 pg
MCHC [8]: 33.9%
MCV [8]: 63.9 fL
Mono [8]: 2.8%
Neu [8]: 18.6%
PT [8]: 12.8 s
Plat [8]: 126.5 x10_4/uL
RBC [8]: 600.8 x10_4/ul
Ret [8]: 6.8%
WBC [8]: 87.8 x10_2/uL
KIDNEY_L [8]: 1 g
KIDNEY_R [8]: 1 g
KIDNEY_TOTAL [8]: 1.9 g
LIVER [8]: 10.1 g
A/G [8]: 1.7
ALP [8]: 923.4 IU/L
ALT [8]: 35.6 IU/L
AST [8]: 69.2 IU/L
BUN [8]: 16.2 mg/dL
CRE [8]: 0.3 mg/dL
Ca [8]: 10.7 mg/dL
Cl [8]: 103.4 meq/L
DBIL [8]: 0.1 mg/dL
GLC [8]: 195 mg/dL
IP [8]: 7.7 mg/dL
K [8]: 3.4 meq/L
LDH [8]: 218.2 IU/L
Na [8]: 142.6 meq/L
PL [8]: 143.6 mg/dL
RALB [8]: 3.5 g/dL
TBIL [8]: 0.2 mg/dL
TC [8]: 75.4 mg/dL
TG [8]: 74 mg/dL
TP [8]: 5.5 g/dL
gamma-GTP [8]: 1.4 IU/L
